{"source": "patent US20170290890A1", "about": "“STIMULATION OF OVARIAN FOLLICLE DEVELOPMENT AND OOCYTE MATURATION” (The Board of Trustees of the Leland Stanford Junior …, priority 2014, published 2017)", "key": {"[1]": {"system": "Ovaries from day 10 mice", "assay": "Ovarian explant culture and follicle counting", "assay_type": "cell-based", "conditions": "explant culture 4 days", "procedure": "We treated ovaries from day 10 mice with increasing doses of MHY1485 using an explant culture model.\nOvaries from day 10 mice were placed on culture plate inserts (Millipore) and cultured in 400 μl of DMEM/F12 containing 0.1% BSA, 0.1% Albumax II, insulin-transferrin-selenium, 0.05 mg/ml L-ascorbic acid and penicillin-streptomycin under a membrane insert to cover ovaries with a thin layer of medium. Ovaries were treated with 1-10 μM of MHY1485 and cultured for 4 days with medium change after 2 days of culture. At the end of culture, ovaries were fixed with formalin before weighing. Some ovaries were paraffin-embedded and cut into continuous sections. Sections were stained with hematoxylin and eosin for follicle counting, and only follicles with clearly stained oocyte nucleus were counted to avoid recounting of the same follicle."}, "[2]": {"system": "oocytes", "assay": "In vitro fertilization and embryo transfer of oocytes from pretreated grafts", "assay_type": "in vivo, mice", "procedure": "(§1) Using this model, we further treated the hosts with eCG for 2 days to promote the growth of preovulatory follicles, followed by an injection of hCG to promote oocyte maturation. At 12 h after hCG injection, mature oocytes were punctured from preovulatory follicles for in vitro fertilization.\nOvaries from B6D2F1 mice at 10 days of age were treated with 10 μM MHY1485 for 2 days, followed by transplantation into kidney capsules of hosts for 5 days. At day 5 after transplantation, animals were treated with 10 IU equine chorionic gonadotropin (eCG) for 48 h, followed by an injection of 10 IU human chorionic gonadotropin (hCG). Twelve hour later, grafts were collected and oocytes were retrieved in the M2 medium (Cytospring, Mountain View, Calif.). As controls, B6D2F1 mice at day 25 of age were treated with 5 IU eCG for 48 h, followed by 5 IU hCG before oocyte retrieval. For in vitro fertilization, sperm from B6D2F1 male mice were collected into human tubal fluid medium (Cytospring) and pre-incubated for 1 h at 37 C. Oocytes were then fertilized with sperm (2-3×10^5/ml) for 6 h, and inseminated oocytes were transferred into KSOM medium (Cytospring) for development into blastocysts. For embryo transfer, two-cell embryos were transferred into oviducts of pseudopregnant, 8-week-old CD1 nice pre-mated with vasectomized males of the same strain."}, "[3]": {"system": "Ovaries from day 10 mice", "assay": "Ovarian tissue grafting (in vitro treatment then allo-transplantation under kidney capsules)", "assay_type": "in vivo", "conditions": "2 days in vitro treatment", "procedure": "as §1\nAt the end of transplantation, grafts were collected for weight determination and histological analysis. For some animals, ovaries from day 10 mice were treated with IVA drugs (PTEN inhibitor: (bpv(hopic) at 30 μM for the first day and an activator for phosphoinositol-3-kinase 740YP at 150 μg/mL for two days) before grafting."}, "[4]": {"system": "mTOR signaling pathway", "assay": "Immunoblotting of mTOR pathway protein phosphorylation in ovaries", "assay_type": "cell-based, mice", "conditions": "day 10 mouse ovaries, 3 h, 10 μM, FIG. 1A", "procedure": "Ovaries from day 10 mice were incubated for 3 h with 10 μM of MHY1485 before immunoblotting analyses. […] Activated mTORC1 complex phosphorylates Thr389 in ribosomal S6 kinase (S6K), thereby activating it to subsequently phosphorylate ribosomal protein S6 (rpS6) and promote ribosome biogenesis. We further monitored S6K1 and rpS6 phosphorylation in ovarian tissues.\nOvaries from mice at day 10 of age were treated with MHY1485 (Millipore, Bedford, Mass.) for 3 h and proteins were extracted using M-PER Mammalian Protein Extraction Reagent (Thermo, Rockford, Ill.) containing a protease inhibitor cocktail (Thermo). Protein concentrations in supernatants were determined by the bicinchoninic acid method (Pierce, Rockford, Ill., USA). Equal amounts of protein lysates were loaded on 4-12% NuPAGE Bis-Tris gels (Invitrogen, Carlsbad, Calif.) in MOPS buffer and transferred to […] pore nitrocellulose membranes (LI-COR, Lincoln, Nebr., USA). First antibodies were from Cell Signaling (Beverly, Mass.) and rabbit secondary antibodies from LI-COR. Images were generated using a LI-COR Odyssey infrared imager."}, "[5]": {"molecular_target": "PTEN (Homo sapiens, UniProt P60484)", "sequence (P60484 whole entry)": "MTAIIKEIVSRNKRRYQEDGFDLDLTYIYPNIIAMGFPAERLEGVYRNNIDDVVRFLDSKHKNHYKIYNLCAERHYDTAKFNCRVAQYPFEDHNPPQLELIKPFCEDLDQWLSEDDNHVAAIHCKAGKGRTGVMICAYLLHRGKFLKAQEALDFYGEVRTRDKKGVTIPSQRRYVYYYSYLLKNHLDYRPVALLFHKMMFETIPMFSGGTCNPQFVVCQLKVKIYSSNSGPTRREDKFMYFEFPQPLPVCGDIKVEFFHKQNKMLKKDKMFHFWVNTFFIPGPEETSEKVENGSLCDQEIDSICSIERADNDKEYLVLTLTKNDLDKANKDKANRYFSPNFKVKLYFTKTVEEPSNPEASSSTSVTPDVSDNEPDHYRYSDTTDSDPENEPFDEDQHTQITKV", "conditions": "cited from earlier work"}, "[6]": {"system": "PTP", "conditions": "cited from earlier work"}, "[7]": {"conditions": "grafts 5 days with FSH, FIG. 2C"}}, "note": "pIC50: −log10 of the molar value."}
{"molecule": "O=[N+]([O-])c1ccc(Nc2nc(N3CCOCC3)nc(N3CCOCC3)n2)cc1", "note": "[MHY1485, 4,6-Di-4-morpholinyl-N-(4-nitrophenyl)-1,3,5-triazin-2-amine]", "values": [{"measurement": "ovarian weights", "setting": "[1]; 1-10 μM, FIG. 1B", "result": "dose-dependent increases"}, {"measurement": "follicle growth (histology, follicle counting)", "setting": "[1]; FIG. 1C, 1D", "result": "enhancement of follicle growth from early secondary to the late secondary stage"}, {"measurement": "development of oocytes after in vitro fertilization", "setting": "[2]; 10 μM 2 days, graft 5 days, eCG then hCG, oocytes fertilized, FIG. 3A", "result": "could develop into blastocysts"}, {"measurement": "outcome of 2-cell embryo transfer into pseudopregnant surrogate mothers", "setting": "[2]; FIG. 3C", "result": "healthy pups were delivered"}, {"measurement": "early embryonic development vs oocytes from day 25 mice (controls)", "setting": "[2]; percentage of oocytes developing into each embryonic stage, FIG. 3B", "result": "comparable early embryonic development"}, {"measurement": "graft weights", "setting": "[3]; grafted into adult hosts, daily FSH 5 days, FIG. 2A", "result": "increased"}, {"measurement": "antral/preovulatory follicles", "setting": "[3]; grafts 5 days with FSH, FIG. 2B, 2C", "result": "increases in the development of antral/preovulatory follicles"}, {"measurement": "early secondary follicles", "setting": "[3]; [7]", "result": "decrease of early secondary follicles"}, {"measurement": "primary follicles", "setting": "[3]; [7]", "result": "increase of primary follicles"}, {"measurement": "phospho-mTOR levels", "setting": "[4]", "result": "increased"}, {"measurement": "phosphorylation of S6K1", "setting": "[4]", "result": "increased"}, {"measurement": "phosphorylation of rpS6", "setting": "[4]", "result": "increased"}]}
{"molecule": "O=C([O-])c1ccccn1.OO.OO.[K+].[K+].[OH-].[V]", "note": "[dipotassium bisperoxo(picolinato)oxovanadate (V)]", "values": [{"measurement": "pIC50", "setting": "[5]", "result": 7.51}]}
{"molecule": "OO.OO.[K+].[OH-].[V].c1cnc2c(c1)ccc1cccnc12", "note": "[potassium bisperoxo (1,10-phenanthroline)oxovanadate (V)]", "values": [{"measurement": "pIC50", "setting": "[5]", "result": 7.42}]}
{"molecule": "dipotassium bisperoxo(5-hydroxypyridine-2-carboxyl)oxovanadate (V)", "values": [{"measurement": "pIC50", "setting": "[5]", "result": 7.85}]}
{"molecule": "monoperoxo(picolinato)oxovanadate(V)", "values": [{"measurement": "pIC50", "setting": "[6]", "result": 4.74}]}
{"molecule": "potassium bisperoxo(bipyridine)oxovanadate (V)", "values": [{"measurement": "pIC50", "setting": "[5]", "result": 7.74}]}
